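Following 48 hours of exposure in 96-well plates, responses at five concentrations were used to interpolate endpoints linearly. GI50: concentration for 50% inhibition of growth. Definition used: TGI = concentration required for complete inhibition of growth.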
Columns and labels:
Assay in all cases: NCI anticancer screen, dose series, 48 h
A498 renal = system: A498 renal
ACHN renal = system: ACHN renal
BT-549 breast = system: BT-549 breast
CAKI-1 renal = system: CAKI-1 renal
CCRF-CEM leukemia = system: CCRF-CEM leukemia
COLO 205 colon = system: COLO 205 colon
DU-145 prostate = system: DU-145 prostate
EKVX NSCLC = system: EKVX NSCLC
HCC-2998 colon = system: HCC-2998 colon
HCT-116 colon = system: HCT-116 colon
HCT-15 colon = system: HCT-15 colon
HL-60(TB) leukemia = system: HL-60(TB) leukemia
HOP-62 NSCLC = system: HOP-62 NSCLC
HOP-92 NSCLC = system: HOP-92 NSCLC
HS 578T breast = system: HS 578T breast
IGROV1 ovarian = system: IGROV1 ovarian
KM12 colon = system: KM12 colon
LOX IMVI melanoma = system: LOX IMVI melanoma
M14 melanoma = system: M14 melanoma
MALME-3M melanoma = system: MALME-3M melanoma
MCF7 breast = system: MCF7 breast
MDA-MB-231 breast = system: MDA-MB-231 breast
MDA-MB-435 = system: MDA-MB-435
MDA-MB-468 breast = system: MDA-MB-468 breast
MOLT-4 leukemia = system: MOLT-4 leukemia
NCI-H226 lung = system: NCI-H226 lung
NCI-H23 lung = system: NCI-H23 lung
NCI-H522 lung = system: NCI-H522 lung
NCI/ADR-RES ovarian = system: NCI/ADR-RES ovarian
OVCAR-3 ovarian = system: OVCAR-3 ovarian
OVCAR-4 ovarian = system: OVCAR-4 ovarian
OVCAR-5 ovarian = system: OVCAR-5 ovarian
OVCAR-8 ovarian = system: OVCAR-8 ovarian
PC-3 prostate = system: PC-3 prostate
RPMI-8226 leukemia = system: RPMI-8226 leukemia
RXF 393 renal = system: RXF 393 renal
SF-268 CNS = system: SF-268 CNS
SF-295 CNS = system: SF-295 CNS
SF-539 CNS = system: SF-539 CNS
SK-MEL-2 melanoma = system: SK-MEL-2 melanoma
SK-MEL-28 melanoma = system: SK-MEL-28 melanoma
SK-MEL-5 melanoma = system: SK-MEL-5 melanoma
SN12C renal = system: SN12C renal
SNB-19 CNS = system: SNB-19 CNS
SNB-75 CNS = system: SNB-75 CNS
SW-620 colon = system: SW-620 colon
T-47D breast = system: T-47D breast
TK-10 renal = system: TK-10 renal
UACC-257 melanoma = system: UACC-257 melanoma
UACC-62 melanoma = system: UACC-62 melanoma
UO-31 renal = system: UO-31 renal

`COc1ccc(-c2nc3cc(C)ccc3n2CC(=O)N=Nc2c(O)[nH]c3ccc(Cl)cc23)cc1` gave a GI50 (A498 renal) of 3.63 µM, a TGI (A498 renal) of over 100 µM and a GI50 (ACHN renal) of 2.1 µM. It also gave a TGI (ACHN renal) of 5.67 µM, a GI50 (BT-549 breast) of 1.97 µM and a TGI (BT-549 breast) of 4.66 µM. It also gave a GI50 (CAKI-1 renal) of 2.35 µM, a TGI (CAKI-1 renal) of 24.6 µM and a GI50 (CCRF-CEM leukemia) of 3.07 µM. The TGI (CCRF-CEM leukemia) was 60.2 µM, the GI50 (COLO 205 colon) was 3.15 µM and the TGI (COLO 205 colon) was 10.2 µM. The GI50 (DU-145 prostate) was 3.18 µM, the TGI (DU-145 prostate) was 16.2 µM and the GI50 (EKVX NSCLC) was 1.91 µM. The TGI (EKVX NSCLC) was 5.61 µM, the GI50 (HCC-2998 colon) was 3.16 µM and the TGI (HCC-2998 colon) was over 100 µM. It also gave a GI50 (HCT-116 colon) of 1.83 µM, a TGI (HCT-116 colon) of 4 µM and a GI50 (HCT-15 colon) of 3.64 µM. The TGI (HCT-15 colon) was over 100 µM, the GI50 (HL-60(TB) leukemia) was 4.36 µM and the TGI (HL-60(TB) leukemia) was over 100 µM. For the same molecule, the GI50 (HOP-62 NSCLC) was 2.13 µM, the TGI (HOP-62 NSCLC) was 5.97 µM and the GI50 (HOP-92 NSCLC) was 1.48 µM. The TGI (HOP-92 NSCLC) was 4.63 µM, the GI50 (HS 578T breast) was 1.79 µM and the TGI (HS 578T breast) was 6.03 µM. For the same molecule, the GI50 (IGROV1 ovarian) was 3.22 µM, the TGI (IGROV1 ovarian) was 24.5 µM and the GI50 (KM12 colon) was 3.01 µM. The TGI (KM12 colon) was 10 µM, the GI50 (LOX IMVI melanoma) was 1.78 µM and the TGI (LOX IMVI melanoma) was 3.93 µM. For the same molecule, the GI50 (M14 melanoma) was 1.9 µM, the TGI (M14 melanoma) was 4.02 µM and the GI50 (MALME-3M melanoma) was 2.12 µM. The TGI (MALME-3M melanoma) was 4.38 µM, the GI50 (MCF7 breast) was 2.69 µM and the TGI (MCF7 breast) was 16.2 µM. It also gave a GI50 (MDA-MB-231 breast) of 1.96 µM, a TGI (MDA-MB-231 breast) of 4.8 µM and a GI50 (MDA-MB-435) of 2.29 µM. The TGI (MDA-MB-435) was 6.14 µM, the GI50 (MDA-MB-468 breast) was 2.29 µM and the TGI (MDA-MB-468 breast) was 5.05 µM. For the same molecule, the GI50 (MOLT-4 leukemia) was 2.43 µM, the TGI (MOLT-4 leukemia) was over 100 µM and the GI50 (NCI-H226 lung) was 1.9 µM. For the same molecule, the TGI (NCI-H226 lung) was 5.18 µM, the GI50 (NCI-H23 lung) was 2.83 µM and the TGI (NCI-H23 lung) was 11.3 µM. It also gave a GI50 (NCI-H522 lung) of 3.99 µM, a TGI (NCI-H522 lung) of 22 µM and a GI50 (NCI/ADR-RES ovarian) of 2.48 µM. The TGI (NCI/ADR-RES ovarian) was 7.16 µM, the GI50 (OVCAR-3 ovarian) was 1.88 µM and the TGI (OVCAR-3 ovarian) was 3.8 µM. It also gave a GI50 (OVCAR-4 ovarian) of 2.35 µM, a TGI (OVCAR-4 ovarian) of 6.5 µM and a GI50 (OVCAR-5 ovarian) of 2.63 µM. It also gave a TGI (OVCAR-5 ovarian) of 10.1 µM, a GI50 (OVCAR-8 ovarian) of 1.82 µM and a TGI (OVCAR-8 ovarian) of 3.77 µM. It also gave a GI50 (PC-3 prostate) of 2.38 µM, a TGI (PC-3 prostate) of 8.6 µM and a GI50 (RPMI-8226 leukemia) of 3.01 µM. For the same molecule, the TGI (RPMI-8226 leukemia) was over 100 µM, the GI50 (RXF 393 renal) was 1.49 µM and the TGI (RXF 393 renal) was 3.9 µM. The GI50 (SF-268 CNS) was 3 µM, the TGI (SF-268 CNS) was over 100 µM and the GI50 (SF-295 CNS) was 2.49 µM. The TGI (SF-295 CNS) was 8 µM, the GI50 (SF-539 CNS) was 1.76 µM and the TGI (SF-539 CNS) was 3.41 µM. It also gave a GI50 (SK-MEL-2 melanoma) of 3.25 µM, a TGI (SK-MEL-2 melanoma) of 18.6 µM and a GI50 (SK-MEL-28 melanoma) of 1.82 µM. The TGI (SK-MEL-28 melanoma) was 3.39 µM, the GI50 (SK-MEL-5 melanoma) was 2.07 µM and the TGI (SK-MEL-5 melanoma) was 4.9 µM. It also gave a GI50 (SN12C renal) of 2 µM, a TGI (SN12C renal) of 6.18 µM and a GI50 (SNB-19 CNS) of 2.73 µM. For the same molecule, the TGI (SNB-19 CNS) was 9.29 µM, the GI50 (SNB-75 CNS) was 0.532 µM and the TGI (SNB-75 CNS) was 4.09 µM. For the same molecule, the GI50 (SW-620 colon) was 2.35 µM, the TGI (SW-620 colon) was 6.59 µM and the GI50 (T-47D breast) was 2.73 µM. For the same molecule, the TGI (T-47D breast) was over 100 µM, the GI50 (TK-10 renal) was 3.43 µM and the TGI (TK-10 renal) was over 100 µM. For the same molecule, the GI50 (UACC-257 melanoma) was 2.1 µM, the TGI (UACC-257 melanoma) was 4.99 µM and the GI50 (UACC-62 melanoma) was 1.58 µM. The TGI (UACC-62 melanoma) was 3.4 µM, the GI50 (UO-31 renal) was 3.81 µM and the TGI (UO-31 renal) was over 100 µM.

Reference: PubChem BioAssay (NCI)
